Results on four molecules are retold here after PMC10796807 (Computational and Structural Biotechnology Journal, 2023).

pEC50: −log10 of the molar value. Like-named read-outs stand apart in the source and are kept apart here.

One test deals with T1, rat TRPV2 (rTRPV2-eGFP) (Rattus norvegicus, UniProt Q9WUD2).
T1 sequence (Q9WUD2 1-761): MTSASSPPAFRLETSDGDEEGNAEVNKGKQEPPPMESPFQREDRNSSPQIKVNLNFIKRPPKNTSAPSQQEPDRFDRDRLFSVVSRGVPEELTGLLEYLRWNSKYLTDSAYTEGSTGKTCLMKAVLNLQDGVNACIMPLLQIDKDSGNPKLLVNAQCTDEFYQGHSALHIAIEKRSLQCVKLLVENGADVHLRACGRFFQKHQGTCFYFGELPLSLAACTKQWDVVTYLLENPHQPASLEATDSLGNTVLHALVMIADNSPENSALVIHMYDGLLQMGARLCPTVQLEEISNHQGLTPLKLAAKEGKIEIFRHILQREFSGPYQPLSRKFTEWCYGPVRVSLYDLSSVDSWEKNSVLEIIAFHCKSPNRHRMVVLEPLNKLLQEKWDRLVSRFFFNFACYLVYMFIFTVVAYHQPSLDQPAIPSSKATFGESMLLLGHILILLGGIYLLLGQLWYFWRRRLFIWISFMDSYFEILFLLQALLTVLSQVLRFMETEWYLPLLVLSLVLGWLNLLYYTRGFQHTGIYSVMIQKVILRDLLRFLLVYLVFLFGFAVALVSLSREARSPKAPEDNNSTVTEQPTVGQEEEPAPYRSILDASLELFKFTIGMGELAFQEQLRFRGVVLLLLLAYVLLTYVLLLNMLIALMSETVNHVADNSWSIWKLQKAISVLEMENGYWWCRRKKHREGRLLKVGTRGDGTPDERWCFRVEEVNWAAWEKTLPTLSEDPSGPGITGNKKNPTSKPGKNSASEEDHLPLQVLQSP
The test is classed as biochemical. Conditions: for pEC50: no inhibitor.

Another test concerns rat TRPV2. Particulars: cells pretreated with 2.5 mM PBCD; ref [22]; cited from earlier work.
The next test deals with mouse or rat TRPV2. Conditions: read-out: reported EC50 values; ref [40]; cited from earlier work.
In a further test the test system is human TRPV2. Particulars: ref [40]; cited from earlier work.

Take `C=C(C)[C@@H]1CCC(C)=C[C@H]1c1c(O)cc(CCCCC)cc1O` [CBD, cannabidiol]: the pEC50 (usually the EC50 on a negative log10 scale, so that one unit is a factor of ten) on rat TRPV2 (rTRPV2-eGFP) (EC50 (Bayesian, 90% confidence interval in brackets), TRPV2-GFP vesicles) is 3.96; in the test on rat TRPV2, 5.43; in the test on mouse or rat TRPV2, 6.00 to 8.00. Further, the activation result with human TRPV2 was “no activation of human TRPV2”.
Take `O=C(O)c1ccc(S(=O)(=O)N2CCCCC2)cc1` [Compound 6, 4-(Piperidine-1-sulfonyl)-benzoic acid]: the “Confidence that EC50 is lower than that of PBCD (Bayesian hypothesis test)” value on rat TRPV2 (rTRPV2-eGFP) is on record as 84%.
On to `COc1cc(CNC(=O)CCCC/C=C/C(C)C)ccc1O` [capsaicin], for which, on rat TRPV2 (rTRPV2-eGFP) (negative controls, TRPV2-GFP vesicles), the “Activation/modulation of TRPV2 (fluorescence signal)” value was “no measurable increase of fluorescence signal”.
Regarding lysophosphatidylcholine [LPC], the negative logarithm of the EC50 (pEC50) on rat TRPV2 (rTRPV2-eGFP) (read-out: EC50 (Bayesian, 90% confidence interval in brackets), TRPV2-GFP vesicles) was 4.44.
